Tests used:
[1] = system: freshly isolated mouse B cells; assay: Spontaneous apoptosis by hypo-diploid nuclei PI staining, primary B cells; type: cell-based; conditions: 1 or 100 μg/ml in ethanol solution
Method: Apoptosis was measured by FACS analysis with a hypo-diploid nuclei propidium iodide (PI) staining of freshly isolated mouse B cells treated with amino-phenyl-acetic acid octadec-(Z)-9-enyl ester in ethanol solution. FIGS. 5A-5C: L-12 cells treated with 0, 1 or 100 μg/ml of amino-phenyl-acetic acid octadec-(Z)-9-enyl ester, respectively; FIGS. 5D-5F: L-12 cells treated with 0, 1 or 100 μg/ml of the control reagent 4-methyl-piperazino-acetic acid ethyl ester, respectively; and FIGS. 5G-5I: L-12 cells treated with an ethanol volume corresponding to 0, 1 or to 100 μg/ml of amino-phenyl-acetic acid octadec-(Z)-9-enyl ester in ethanol solution, respectively.
(§1) B or T-cell apoptosis was detected by flow cytometry. […] The cells were then subjected to flow cytometric analysis; for each sample 10,000 were collected and cell-cycle distribution was analyzed according to relative DNA content (PI staining). […] The cells were then collected, stained by APO-DIRECT TUNNEL kit (Phnxflow, CITY, Calif., USA); mitochondrial potential was measured by DePsipher (R&D Systems, Minneapolis, Minn.) according to the manufacturer's procedure. Intracellular caspase activity was measured by Apostat kit (R&D Systems), according to the manufacturer's procedure. The cells were analyzed by Flow cytometry using FACSort (Becton Dickinson) and CellQuest software (Becton Dickinson). […]

[2] = system: p53 expressing L-12 mouse B cell line; assay: Apoptosis by hypo-diploid nuclei PI staining, transformed B cell line; type: cell-based; conditions: 10 or 100 μg per ml in 5% ethanol solution, 48 h
Method: Apoptosis was measured by FACS analysis with a hypo-diploid nuclei propidium iodide (PI) staining of an amino-phenyl-acetic acid octadec-(Z)-9-enyl ester treated p53 expressing L-12 mouse B cell line. FIGS. 4A-4C: L-12 cells treated with 0, 10 or 100 μg/ml of amino-phenyl-acetic acid octadec-(Z)-9-enyl ester in ethanol solution, respectively; FIGS. 4D-4F: L-12 cells treated with 0, 10 or 100 μg/ml of the control reagent 4-methyl-piperazino-acetic acid ethyl ester in ethanol solution, respectively; and FIGS. 4G-4I: L-12 cells treated with an ethanol volume corresponding to 0, 10 or 100 μg/ml of amino-phenyl-acetic acid octadec-(Z)-9-enyl ester, respectively. FL2-A is the measure of fluorescence. […]
as §1

CCOC(=O)CN1CCN(C)CC1 [4-methyl-piperazino-acetic acid ethyl ester, reference compound]
spontaneous apoptosis / cell-cycle of primary B cells [1]: had no effect
apoptosis / cell cycle (cells in sub-GO state) [2]: had no effect
